Here are results for one compound from patent US20210100781A1, “TUMOR SUPPRESSION” (Kyoto University, priority 2019, published 2021).

In test [1] the test system is E6 and E7 genes of HPV. As to conditions: known from WO2005/063293, WO2009/020198, Yamamoto et al. 2014; cited from earlier work.
Test [2] has as its system BCBL-1 cells. Nature of the test: Intraperitoneal administration to PEL xenograft mouse models. It is filed as in vivo, mice (NOD/SCID mice). The settings on record: 300 mg/kg bw intraperitoneally three times a week, 45 days. As to the method: BCBL-1 cells were intraperitoneally inoculated into immunodeficient mice (NOD/SCID mice) so that PEL xenograft models were produced. PEL refers to “primary effusion lymphoma”, as described above. The mice were divided into a compound A administered group and a control group. […] To the control group, PBS was administered intraperitoneally three times a week instead of the compound A. Exemplary results thereof are shown in FIG. 5.

Test [3] has as its system KSHV. The test is described as follows: Suppression of viral replication: KSHV copy number by real-time PCR. As to conditions: BCBL-1 cells undergoing lytic induction, 96 hours, compound increased to 5 μM and to 10 μM. Type of test: cell-based. As to the method: Effects of the compound A on the KSHV copy number were analyzed by real-time PCR.
The compound A was added to the BCBL-1 cells undergoing lytic induction and cultured for 96 hours; then, DNA samples were collected and analyzed by real-time PCR.
(Quantitative PCR measures a nucleic acid by following its amplification.)

The test system of test [4] is KSHV. The test is described as follows: Viruses in ascites and plasma of PEL xenograft mice. It is filed as in vivo, mice (NOD/SCID mice). The settings on record: 300 mg/kg bw intraperitoneally three times a week, 45 days. As to the method:
BCBL-1 cells were intraperitoneally inoculated into immunodeficient mice (NOD/SCID mice) so that PEL xenograft models were produced. PEL refers to “primary effusion lymphoma”, as described above.
The mice were divided into a compound A administered group and a control group. […] To the control group, PBS was administered intraperitoneally three times a week instead of the compound A. Exemplary results thereof are shown in FIG. 5.
Viruses in ascites and plasma of the above-described mice were detected.

Test [5] deals with lytic genes. The test is described as follows: Suppression of lytic induction in KSHV+ PEL cells (RT-PCR and Western blotting). It is filed as cell-based. The settings on record: BC-3 cells and BCBL-1 cells undergoing lytic induction, 48 hours. An excerpt: Both of the BC-3 cells and the BCBL-1 cells are cell lines of KSHV^+ PEL cells. Regarding the BC-3 cells, it is known that TPA (12-O-tetradecanoylphorbol-13-acetate) and SB (sodium butyrate) cause cytokine stimulation, which results in the lytic induction. Further, regarding the BCBL-1 cells, it is known that VPA (valproic acid) causes cytokine stimulation, which results in the lytic induction.
Such cytokine stimulation was given to the BC-3 cells and the BCBL-1 cells, and the cells were cultured for 24 hours or 48 hours. Then, RNA of the same was collected, and was subjected to RT-PCR.
Effects of the compound A (the compound A produced in Production Example 1, also described as “Cp. A”) were confirmed by using the same BC-3 cells and BCBL-1 cells as those in Reference Example 1.
The compound A was added to the BC-3 cells and the BCBL-1 cells undergoing lytic induction and cultured for 48 hours; then, the cultured cells were analyzed by RT-PCR and Western blotting.
On the technique in general: A western blot detects proteins with antibodies after separation by electrophoresis.

As for `Fc1ccc(N2CCCCC2)c(NC(=S)c2ccncc2)c1` [compound A, N-[5-fluoro-2-(1-piperidinyl)phenyl]-4-pyridinethioamide], in test [1], the “expression of the E6 and E7 genes of HPV” value is recorded as “suppress”; the p53 gene stabilization entry is recorded as “stabilize”. In test [2] (vs control group (PBS)), the amount of ascites result is reported as “significantly less”. Also, in test [2] (vs control group, data not shown), the enlarged spleen result is “particularly suppressed”. Further, the “virus copy number (real-time PCR)” value in test [3] was “decreased”. Besides, the “amount of viruses in ascites” value in test [4] (ascites) is given as “significantly decrease”. For the same compound, the “amount of viruses in plasma” value in test [4] (plasma) was “significantly decrease”. The “expression of the lytic genes at protein level (Western blotting)” value in test [5] is “suppressed”. Also, the “expression amount of lytic genes (RT-PCR)” value in test [5] (compound increased to 5 μM and to 10 μM) is on record as “decreased”.
